Test [1] addresses Mitogen-activated protein kinase 3 (Homo sapiens) (UniProt P27361). The test can be described thus: Inhibition of ERK1 at 10 uM.
The target of test [2] is Tyrosine-protein kinase Lyn (Homo sapiens) (UniProt P07948). The test can be described thus: Inhibition of LYN at 10 uM.
For test [3], the target named is T1, Death-associated protein kinase 3 (Homo sapiens, UniProt O43293). The test can be described thus: Inhibition of human recombinant DAPK3.
The target of test [4] is Tyrosine-protein kinase Lck (Homo sapiens) (UniProt P06239). The test can be described thus: Inhibition of LCK at 10 uM.
Sequence of Tyrosine-protein kinase Lck (Homo sapiens) (P06239 2-509 limits assumed): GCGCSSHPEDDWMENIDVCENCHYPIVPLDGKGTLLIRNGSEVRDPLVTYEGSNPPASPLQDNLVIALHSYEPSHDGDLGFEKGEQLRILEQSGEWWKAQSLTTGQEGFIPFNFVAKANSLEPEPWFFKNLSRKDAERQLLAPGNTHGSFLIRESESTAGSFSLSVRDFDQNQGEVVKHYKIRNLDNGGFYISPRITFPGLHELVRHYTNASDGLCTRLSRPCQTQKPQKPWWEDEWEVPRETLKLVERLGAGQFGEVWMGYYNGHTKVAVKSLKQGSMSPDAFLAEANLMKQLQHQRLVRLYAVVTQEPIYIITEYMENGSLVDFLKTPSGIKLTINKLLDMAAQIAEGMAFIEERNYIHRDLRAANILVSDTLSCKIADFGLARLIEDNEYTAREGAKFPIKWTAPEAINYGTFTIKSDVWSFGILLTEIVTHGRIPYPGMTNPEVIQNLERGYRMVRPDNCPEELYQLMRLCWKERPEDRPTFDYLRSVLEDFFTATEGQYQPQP
The target in test [5] is Insulin receptor (Homo sapiens) (UniProt P06213). In words: Inhibition of INSR at 10 uM.
Sequence of Insulin receptor (Homo sapiens) (P06213 28-758 limits assumed): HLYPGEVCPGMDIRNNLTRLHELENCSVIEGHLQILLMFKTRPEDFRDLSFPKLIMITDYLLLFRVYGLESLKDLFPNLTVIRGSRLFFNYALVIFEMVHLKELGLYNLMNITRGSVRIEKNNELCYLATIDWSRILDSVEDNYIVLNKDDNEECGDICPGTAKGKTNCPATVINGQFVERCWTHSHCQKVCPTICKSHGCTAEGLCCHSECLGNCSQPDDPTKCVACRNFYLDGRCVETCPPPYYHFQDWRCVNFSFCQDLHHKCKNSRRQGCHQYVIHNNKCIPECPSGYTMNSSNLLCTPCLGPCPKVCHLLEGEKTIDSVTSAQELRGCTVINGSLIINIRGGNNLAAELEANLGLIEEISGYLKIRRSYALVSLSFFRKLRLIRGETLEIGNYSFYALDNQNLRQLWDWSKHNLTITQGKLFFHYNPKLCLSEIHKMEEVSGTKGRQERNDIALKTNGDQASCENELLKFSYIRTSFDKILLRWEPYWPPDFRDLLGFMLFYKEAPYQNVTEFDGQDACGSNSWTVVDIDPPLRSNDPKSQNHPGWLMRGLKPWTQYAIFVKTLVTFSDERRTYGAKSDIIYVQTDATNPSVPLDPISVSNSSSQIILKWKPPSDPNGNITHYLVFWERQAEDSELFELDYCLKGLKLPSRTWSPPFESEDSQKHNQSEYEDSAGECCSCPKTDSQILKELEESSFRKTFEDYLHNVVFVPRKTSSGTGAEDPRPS
Sequence of Insulin receptor (Homo sapiens) (P06213 763-1382 limits assumed): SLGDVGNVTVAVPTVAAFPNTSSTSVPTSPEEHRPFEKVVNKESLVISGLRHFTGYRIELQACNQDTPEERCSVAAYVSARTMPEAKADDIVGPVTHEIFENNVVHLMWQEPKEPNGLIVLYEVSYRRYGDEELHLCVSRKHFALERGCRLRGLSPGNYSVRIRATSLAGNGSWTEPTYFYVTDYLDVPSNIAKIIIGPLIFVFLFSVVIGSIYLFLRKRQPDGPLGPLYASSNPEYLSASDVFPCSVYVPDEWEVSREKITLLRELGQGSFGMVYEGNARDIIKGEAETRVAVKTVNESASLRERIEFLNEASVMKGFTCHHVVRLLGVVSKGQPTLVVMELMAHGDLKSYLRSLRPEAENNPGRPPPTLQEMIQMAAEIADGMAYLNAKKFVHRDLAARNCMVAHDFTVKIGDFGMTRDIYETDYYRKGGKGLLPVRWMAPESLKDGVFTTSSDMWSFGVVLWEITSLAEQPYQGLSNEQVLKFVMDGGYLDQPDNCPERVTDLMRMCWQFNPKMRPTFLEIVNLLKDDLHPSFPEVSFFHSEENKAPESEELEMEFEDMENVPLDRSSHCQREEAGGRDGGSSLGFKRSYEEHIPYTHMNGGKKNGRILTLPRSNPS
Test [6] deals with Glycogen synthase kinase-3 beta (Homo sapiens) (UniProt P49841). The test can be described thus: Inhibition of GSK3-beta at 10 uM.
For test [7], the target named is T2, Serine/threonine-protein kinase Chk1 (Homo sapiens) (UniProt O14757).
T2 sequence (whole entry): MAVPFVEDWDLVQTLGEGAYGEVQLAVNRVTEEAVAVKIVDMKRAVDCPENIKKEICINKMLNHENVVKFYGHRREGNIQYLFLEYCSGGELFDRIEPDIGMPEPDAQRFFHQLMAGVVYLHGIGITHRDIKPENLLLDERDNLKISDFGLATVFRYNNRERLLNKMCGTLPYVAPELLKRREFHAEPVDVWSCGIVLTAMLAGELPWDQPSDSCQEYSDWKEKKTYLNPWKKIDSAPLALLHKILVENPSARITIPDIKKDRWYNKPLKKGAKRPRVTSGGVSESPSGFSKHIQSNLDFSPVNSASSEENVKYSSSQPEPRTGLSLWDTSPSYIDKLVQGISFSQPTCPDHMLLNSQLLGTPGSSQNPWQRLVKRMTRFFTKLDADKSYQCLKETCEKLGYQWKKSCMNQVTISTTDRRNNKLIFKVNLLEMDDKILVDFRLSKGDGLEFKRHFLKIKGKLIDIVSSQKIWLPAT
In words: Inhibition of CHK1 at 10 uM.

Test [8] has as its target Tyrosine-protein kinase ABL1 (Homo sapiens) (UniProt P00519). In words: Inhibition of ABL at 10 uM.
Test [9] concerns the target MAP kinase-activated protein kinase 2 (Homo sapiens) (UniProt P49137). In words: Inhibition of MAPKAPK2 at 10 uM.
Test [10] addresses Hepatocyte growth factor receptor (Homo sapiens) (UniProt P08581). In words: Inhibition of MET at 10 uM.
Test [11] deals with T3, Protein kinase C zeta type (Homo sapiens) (UniProt Q05513).
T3 sequence (whole entry): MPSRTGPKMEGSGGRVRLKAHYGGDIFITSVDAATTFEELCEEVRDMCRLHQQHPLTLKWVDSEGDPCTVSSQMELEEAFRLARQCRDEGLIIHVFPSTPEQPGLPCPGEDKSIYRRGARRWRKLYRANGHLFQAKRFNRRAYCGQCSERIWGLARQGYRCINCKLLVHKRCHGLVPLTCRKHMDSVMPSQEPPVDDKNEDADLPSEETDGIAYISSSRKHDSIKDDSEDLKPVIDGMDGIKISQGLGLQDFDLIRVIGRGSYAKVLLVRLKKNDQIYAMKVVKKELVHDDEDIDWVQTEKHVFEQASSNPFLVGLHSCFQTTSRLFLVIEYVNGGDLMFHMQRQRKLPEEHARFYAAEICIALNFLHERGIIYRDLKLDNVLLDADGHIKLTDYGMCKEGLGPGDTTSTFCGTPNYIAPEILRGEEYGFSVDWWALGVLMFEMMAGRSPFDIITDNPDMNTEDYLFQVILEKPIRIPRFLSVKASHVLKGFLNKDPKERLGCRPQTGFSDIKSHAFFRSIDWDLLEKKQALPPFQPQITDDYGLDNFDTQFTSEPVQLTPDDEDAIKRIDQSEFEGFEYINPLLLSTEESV
In words: Inhibition of PKCzeta at 10 uM.

For test [12], the target named is RAC-beta serine/threonine-protein kinase (Homo sapiens) (UniProt P31751). In words: Inhibition of AKT2 at 10 uM.
Sequence of RAC-beta serine/threonine-protein kinase (Homo sapiens) (P31751 whole entry): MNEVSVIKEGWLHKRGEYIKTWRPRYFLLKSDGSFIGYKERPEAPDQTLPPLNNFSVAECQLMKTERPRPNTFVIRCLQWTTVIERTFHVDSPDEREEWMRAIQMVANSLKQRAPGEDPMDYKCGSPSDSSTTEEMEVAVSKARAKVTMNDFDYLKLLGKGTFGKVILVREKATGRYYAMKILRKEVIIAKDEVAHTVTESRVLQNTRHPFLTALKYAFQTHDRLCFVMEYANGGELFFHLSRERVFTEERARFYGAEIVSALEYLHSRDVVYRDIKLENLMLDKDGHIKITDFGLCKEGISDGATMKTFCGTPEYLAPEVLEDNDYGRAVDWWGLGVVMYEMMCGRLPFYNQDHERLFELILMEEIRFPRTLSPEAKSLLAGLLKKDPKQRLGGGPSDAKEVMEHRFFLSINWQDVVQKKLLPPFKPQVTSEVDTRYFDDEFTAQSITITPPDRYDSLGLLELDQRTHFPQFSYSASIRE
Test [13] has as its target T4, Aurora kinase A (Homo sapiens) (UniProt O14965).
T4 sequence (whole entry): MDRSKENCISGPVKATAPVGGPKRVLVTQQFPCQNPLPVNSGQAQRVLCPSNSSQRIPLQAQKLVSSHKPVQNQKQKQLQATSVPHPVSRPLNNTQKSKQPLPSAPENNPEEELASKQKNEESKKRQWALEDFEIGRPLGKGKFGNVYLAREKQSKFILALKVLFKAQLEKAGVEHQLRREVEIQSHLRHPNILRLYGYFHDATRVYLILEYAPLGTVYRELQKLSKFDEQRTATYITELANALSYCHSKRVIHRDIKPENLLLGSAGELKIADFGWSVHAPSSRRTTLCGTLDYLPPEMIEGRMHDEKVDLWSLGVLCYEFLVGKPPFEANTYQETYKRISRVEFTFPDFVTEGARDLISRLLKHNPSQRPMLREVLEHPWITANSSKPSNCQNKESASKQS
The test can be described thus: Inhibition of Aurora A at 10 uM.

Test [14] deals with Mitogen-activated protein kinase 14 (Homo sapiens) (UniProt Q16539). The test can be described thus: Inhibition of P38alpha at 10 uM.
Sequence of Mitogen-activated protein kinase 14 (Homo sapiens) (Q16539 whole entry): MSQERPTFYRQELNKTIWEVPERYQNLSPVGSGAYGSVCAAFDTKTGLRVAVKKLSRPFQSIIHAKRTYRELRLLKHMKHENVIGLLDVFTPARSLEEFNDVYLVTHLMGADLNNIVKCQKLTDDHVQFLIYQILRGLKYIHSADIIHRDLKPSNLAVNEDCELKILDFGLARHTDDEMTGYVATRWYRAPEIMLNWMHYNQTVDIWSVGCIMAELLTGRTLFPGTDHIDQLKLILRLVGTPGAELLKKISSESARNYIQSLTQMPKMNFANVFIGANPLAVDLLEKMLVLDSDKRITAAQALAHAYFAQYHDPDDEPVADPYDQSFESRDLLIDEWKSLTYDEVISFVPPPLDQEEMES
In test [15] the target is RAC-alpha serine/threonine-protein kinase (Homo sapiens) (UniProt P31749). The test can be described thus: Inhibition of AKT1 at 10 uM.
Sequence of RAC-alpha serine/threonine-protein kinase (Homo sapiens) (P31749 whole entry): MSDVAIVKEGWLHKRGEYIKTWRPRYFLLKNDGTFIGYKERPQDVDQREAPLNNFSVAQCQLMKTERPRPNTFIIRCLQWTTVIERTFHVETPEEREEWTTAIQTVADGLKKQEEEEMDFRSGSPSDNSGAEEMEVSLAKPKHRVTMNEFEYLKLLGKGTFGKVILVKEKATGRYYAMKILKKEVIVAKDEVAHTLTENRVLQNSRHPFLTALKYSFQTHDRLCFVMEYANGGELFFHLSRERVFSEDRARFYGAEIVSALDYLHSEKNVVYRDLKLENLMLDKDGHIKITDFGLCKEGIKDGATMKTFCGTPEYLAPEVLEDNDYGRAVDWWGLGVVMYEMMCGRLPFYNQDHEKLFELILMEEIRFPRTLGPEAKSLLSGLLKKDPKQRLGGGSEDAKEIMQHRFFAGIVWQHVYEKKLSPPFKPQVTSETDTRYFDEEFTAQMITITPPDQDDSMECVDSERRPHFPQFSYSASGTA
The target of test [16] is Proto-oncogene tyrosine-protein kinase Src (Homo sapiens) (UniProt P12931). The test can be described thus: Inhibition of SRC at 10 uM.
Sequence of Proto-oncogene tyrosine-protein kinase Src (Homo sapiens) (P12931 2-536 limits assumed): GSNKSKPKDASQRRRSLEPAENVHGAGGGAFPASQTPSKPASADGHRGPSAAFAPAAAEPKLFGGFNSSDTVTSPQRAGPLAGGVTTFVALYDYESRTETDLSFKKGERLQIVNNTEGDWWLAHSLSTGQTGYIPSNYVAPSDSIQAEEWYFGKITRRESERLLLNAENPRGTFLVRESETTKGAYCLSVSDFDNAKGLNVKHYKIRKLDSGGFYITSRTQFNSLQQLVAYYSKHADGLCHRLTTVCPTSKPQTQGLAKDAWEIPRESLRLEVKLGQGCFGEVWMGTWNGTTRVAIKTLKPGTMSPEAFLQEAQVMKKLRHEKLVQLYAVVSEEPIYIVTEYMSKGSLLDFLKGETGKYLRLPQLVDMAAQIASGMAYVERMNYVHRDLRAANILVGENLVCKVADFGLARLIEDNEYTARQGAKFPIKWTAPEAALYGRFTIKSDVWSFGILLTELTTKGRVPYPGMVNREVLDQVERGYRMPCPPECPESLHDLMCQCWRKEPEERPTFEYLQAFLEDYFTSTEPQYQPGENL
Test [17] deals with Death-associated protein kinase 1 (Homo sapiens) (UniProt P53355). The test can be described thus: Inhibition of DAPK1 at 10 uM.
The target of test [18] is Mitogen-activated protein kinase 1 (Homo sapiens) (UniProt P28482). In words: Inhibition of ERK2 at 10 uM.
Sequence of Mitogen-activated protein kinase 1 (Homo sapiens) (P28482 whole entry): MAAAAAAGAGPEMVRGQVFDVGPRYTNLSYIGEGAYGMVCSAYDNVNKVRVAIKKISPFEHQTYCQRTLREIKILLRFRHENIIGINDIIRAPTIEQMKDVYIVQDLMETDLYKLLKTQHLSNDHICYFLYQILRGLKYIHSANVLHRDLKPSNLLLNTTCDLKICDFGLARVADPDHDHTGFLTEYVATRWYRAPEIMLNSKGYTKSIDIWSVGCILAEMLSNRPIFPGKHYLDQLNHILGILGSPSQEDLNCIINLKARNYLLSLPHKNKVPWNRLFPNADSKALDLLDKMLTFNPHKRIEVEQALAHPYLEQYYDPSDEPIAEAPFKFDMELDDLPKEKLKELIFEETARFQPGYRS
In test [19] the target is Serine/threonine-protein kinase Chk2 (Homo sapiens) (UniProt O96017). The test can be described thus: Inhibition of CHK2 at 10 uM.
For test [20], the target named is T5, Serine/threonine-protein kinase D2 (Homo sapiens) (UniProt Q9BZL6).
T5 sequence (whole entry): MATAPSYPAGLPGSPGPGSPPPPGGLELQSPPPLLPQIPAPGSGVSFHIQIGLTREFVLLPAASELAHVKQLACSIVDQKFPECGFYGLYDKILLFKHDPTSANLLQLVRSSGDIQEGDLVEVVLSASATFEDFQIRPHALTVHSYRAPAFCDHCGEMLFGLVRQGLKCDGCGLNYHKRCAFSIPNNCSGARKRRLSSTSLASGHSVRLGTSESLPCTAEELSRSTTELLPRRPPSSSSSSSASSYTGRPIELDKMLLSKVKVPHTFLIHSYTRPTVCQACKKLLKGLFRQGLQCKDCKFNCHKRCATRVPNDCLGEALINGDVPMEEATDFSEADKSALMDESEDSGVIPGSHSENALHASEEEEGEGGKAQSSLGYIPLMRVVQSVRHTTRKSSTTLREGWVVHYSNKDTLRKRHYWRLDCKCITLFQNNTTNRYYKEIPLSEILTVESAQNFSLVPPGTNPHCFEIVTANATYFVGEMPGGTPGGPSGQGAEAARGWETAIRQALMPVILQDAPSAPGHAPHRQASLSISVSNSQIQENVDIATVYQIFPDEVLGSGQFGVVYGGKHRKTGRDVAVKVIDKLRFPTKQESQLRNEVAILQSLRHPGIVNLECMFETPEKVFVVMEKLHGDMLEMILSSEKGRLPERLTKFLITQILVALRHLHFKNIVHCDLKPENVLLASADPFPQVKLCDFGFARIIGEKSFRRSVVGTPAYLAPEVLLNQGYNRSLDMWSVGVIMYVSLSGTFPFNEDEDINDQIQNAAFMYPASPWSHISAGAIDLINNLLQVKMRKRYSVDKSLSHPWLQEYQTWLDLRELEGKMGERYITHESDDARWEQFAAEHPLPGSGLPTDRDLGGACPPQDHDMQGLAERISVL
The test can be described thus: Inhibition of PKD2 at 10 uM.

Test [21] addresses Ribosomal protein S6 kinase alpha-1 (Homo sapiens) (UniProt Q15418). In words: Inhibition of RSK1 at 10 uM.
Test [22] addresses Tyrosine-protein kinase Fyn (Homo sapiens) (UniProt P06241). In words: Inhibition of FYN at 10 uM.
The nature of test [23]: Inhibition of PKA at 10 uM.
The target of test [24] is MAP kinase-activated protein kinase 5 (Homo sapiens) (UniProt Q8IW41). The test can be described thus: Inhibition of PRAK at 10 uM.
For test [25], the target named is T1, Death-associated protein kinase 3. In words: Inhibition of human recombinant DAPK3 at 10 uM.
Test [26] has the same target. The test can be described thus: Inhibition of human recombinant DAPK3 at 1 uM.
The target of test [27] is Ribosomal protein S6 kinase alpha-5 (Homo sapiens) (UniProt O75582). In words: Inhibition of MSK1 at 10 uM.

Sequence of Tyrosine-protein kinase Lyn (Homo sapiens) (P07948 2-512 limits assumed): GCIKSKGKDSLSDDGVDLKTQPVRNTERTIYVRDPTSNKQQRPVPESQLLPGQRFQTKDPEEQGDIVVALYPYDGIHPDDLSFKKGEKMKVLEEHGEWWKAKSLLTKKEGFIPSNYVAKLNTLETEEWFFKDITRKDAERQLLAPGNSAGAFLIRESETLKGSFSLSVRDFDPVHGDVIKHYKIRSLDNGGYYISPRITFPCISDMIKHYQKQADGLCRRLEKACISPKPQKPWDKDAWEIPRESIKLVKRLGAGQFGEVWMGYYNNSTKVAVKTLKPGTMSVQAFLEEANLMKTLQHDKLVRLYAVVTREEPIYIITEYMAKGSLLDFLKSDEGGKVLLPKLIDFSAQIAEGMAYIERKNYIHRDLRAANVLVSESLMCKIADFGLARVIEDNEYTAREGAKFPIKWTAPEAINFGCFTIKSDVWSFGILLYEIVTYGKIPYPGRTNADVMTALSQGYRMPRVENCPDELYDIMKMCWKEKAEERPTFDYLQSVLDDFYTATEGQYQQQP
Sequence of MAP kinase-activated protein kinase 2 (Homo sapiens) (P49137 whole entry, looked up): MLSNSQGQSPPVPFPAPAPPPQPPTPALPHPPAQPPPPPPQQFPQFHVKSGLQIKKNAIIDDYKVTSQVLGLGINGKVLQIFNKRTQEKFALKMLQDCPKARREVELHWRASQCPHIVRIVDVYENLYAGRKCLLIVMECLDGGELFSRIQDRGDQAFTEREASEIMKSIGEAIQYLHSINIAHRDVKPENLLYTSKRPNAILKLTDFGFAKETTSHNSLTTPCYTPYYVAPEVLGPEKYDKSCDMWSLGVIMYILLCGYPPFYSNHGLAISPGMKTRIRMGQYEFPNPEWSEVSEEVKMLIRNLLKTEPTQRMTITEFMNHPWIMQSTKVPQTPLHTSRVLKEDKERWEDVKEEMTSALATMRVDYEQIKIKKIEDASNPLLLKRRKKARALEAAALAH

Take `O=C1OC(c2ccccc2)=N/C1=C\c1cccnc1`: the inhibition – broadly, the change of the read-out against control, counted positive when it falls – in [1] amounted to 16%; in test [2], 10%; in [4], 9%; in test [5], 7%; in [6] it was 9%; in [7], 3%. In addition, the inhibition came out at 16% in [8]; 5% in test [9]; 3% in [10]; 3% in test [11]; 13% in [12]; 6% in test [13]. For the same molecule, the inhibition in test [14] turned out to be 3%; in [15], 12%; in test [16], 13%; in test [17], 98%; in [18], 7%; in test [19] it was 4%. Besides, the inhibition was found to be 7% in test [20], 5% in test [21] and 6% in test [22]. Moreover, the IC50 (commonly the concentration that gives 50% inhibition) in test [3] amounted to 583 nM.

Consider `Cc1cc(C2=N/C(=C\c3cccnc3)C(=O)O2)ccc1Br`, for which the inhibition in test [1] was 18%; in test [2] it was 0%; in [5], 0%; in test [23], 19%; in [7], 5%; in test [8] it was 7%. Also, the inhibition in [9] stood at 2%; in test [11], 5%; in test [12], 28%; in test [24], 10%; in test [13] it was 16%; in test [14], 5%. Moreover, the inhibition amounted to 94% in [25]; 12% in test [15]; 2% in test [16]; 82% in test [17]; 19% in test [19]; 11% in test [20]. For the same molecule, the inhibition in test [26] turned out to be 88%; in test [21], 13%; in [22], 9%. In addition, in [3], the half-maximal inhibitory concentration (IC50) was 278 nM.

As to `O=C1OC(/C=C/c2ccccc2)=NC/1=C\c1cccnc1`, the inhibition in test [1] is 7%; in test [2] it was 1%; in [4], 8%; in test [5] it was 4%; in test [6], 3%; in test [7] it was 12%. Further, the inhibition in [27] was found to be 13%; in test [8], 9%; in test [9], 46%; in test [10] it was 3%; in test [11], 3%; in test [12] it was 17%. Also, the inhibition in [24] was determined as 5%; in test [13], 14%; in test [14], 8%; in test [25], 100%; in test [15] it was 15%; in test [16], 5%. The inhibition in test [17] turned out to be 91%; in test [18], 20%; in test [19] it was 17%; in test [21], 4%; in [22], 1%.

For `O=C1OC(c2ccc(Cl)cc2)=N/C1=C\c1cccnc1`, the inhibition worked out at 25% in [1]; 8% in [4]; 7% in [6]; 9% in [23]; 12% in test [7]; 0% in test [27]. Also, the inhibition in [11] is -3%; in test [12], 17%; in test [13], 15%; in test [14], 2%; in [25] it was 96%; in test [15] it was 13%. Further, the inhibition in test [16] stood at 3%; in test [17] it was 76%; in [18], 10%; in test [19] it was 24%; in test [20], 17%; in test [26], 85%. Moreover, in [21], the inhibition worked out at 10%. Further, in test [3], the IC50 was 529 nM.

For the origin of these results see ChEMBL document CHEMBL1156313, “Structure-activity relationship of novel DAPK inhibitors identified by structure-based virtual screening” (Bioorg Med Chem, 2010).
